Results as given in ChEMBL document CHEMBL5579842, “Modulation of endogenous opioid signaling by inhibitors of puromycin-sensitive aminopeptidase” (Eur J Med Chem, 2024).
Activity calls are given as the source filed them. The rule behind the calls is not given here.

Columns and labels:
[1] = Cytotoxicity against African green monkey Vero cells by MTT assay; assay type: toxicity, cell-based; conditions: chlorocebus sabaeus
[2] = biological target: Puromycin-sensitive aminopeptidase (Homo sapiens, UniProt P55786); assay: Inhibition of human N-terminal His-tagged Puromycin-sensitive aminopeptidase extracted from Escherichia coli BL21 STAR (DE3) using alanine-4-methoxy-2-naphthylamide as substrate incubated for 30 mins by SpectraMax microplate reader analysis
Chain of Puromycin-sensitive aminopeptidase (P55786 whole entry): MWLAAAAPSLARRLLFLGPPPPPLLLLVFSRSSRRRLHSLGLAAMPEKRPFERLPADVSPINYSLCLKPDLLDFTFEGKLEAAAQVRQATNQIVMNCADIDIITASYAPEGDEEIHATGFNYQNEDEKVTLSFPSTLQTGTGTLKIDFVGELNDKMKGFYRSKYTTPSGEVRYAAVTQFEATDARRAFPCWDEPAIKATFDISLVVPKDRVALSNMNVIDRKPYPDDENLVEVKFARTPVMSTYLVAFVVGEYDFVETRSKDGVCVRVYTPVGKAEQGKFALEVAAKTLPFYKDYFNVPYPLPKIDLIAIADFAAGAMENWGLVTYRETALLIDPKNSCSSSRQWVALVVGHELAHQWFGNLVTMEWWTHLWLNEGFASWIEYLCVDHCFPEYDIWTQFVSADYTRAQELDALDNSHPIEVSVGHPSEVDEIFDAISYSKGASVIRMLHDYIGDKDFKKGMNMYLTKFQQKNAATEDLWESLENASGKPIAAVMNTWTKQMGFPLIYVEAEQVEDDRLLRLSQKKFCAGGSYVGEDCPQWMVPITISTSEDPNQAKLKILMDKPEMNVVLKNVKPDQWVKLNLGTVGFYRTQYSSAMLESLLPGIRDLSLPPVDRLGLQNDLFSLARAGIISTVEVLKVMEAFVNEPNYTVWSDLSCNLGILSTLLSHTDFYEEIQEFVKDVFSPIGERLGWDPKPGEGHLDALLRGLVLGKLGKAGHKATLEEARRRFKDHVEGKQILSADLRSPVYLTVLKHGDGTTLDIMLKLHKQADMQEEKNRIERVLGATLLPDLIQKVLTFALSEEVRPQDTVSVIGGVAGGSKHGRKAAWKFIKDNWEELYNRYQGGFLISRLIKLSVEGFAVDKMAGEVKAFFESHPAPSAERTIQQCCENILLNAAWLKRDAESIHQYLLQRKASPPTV

Vero = assay: Inhibition of protein synthesis in African green monkey Vero cells at 25 uM relative to control; assay type: functional; conditions: Chlorocebus sabaeus
Aminopeptidase N [3] = biological target: T1, Aminopeptidase N (Homo sapiens, UniProt P15144); assay: Inhibition of Aminopeptidase N (unknown origin) using Ala-AMC as substrate at 10 uM incubated for 30 mins by SpectraMax microplate reader analysis relative to control
T1 sequence (P15144 whole entry): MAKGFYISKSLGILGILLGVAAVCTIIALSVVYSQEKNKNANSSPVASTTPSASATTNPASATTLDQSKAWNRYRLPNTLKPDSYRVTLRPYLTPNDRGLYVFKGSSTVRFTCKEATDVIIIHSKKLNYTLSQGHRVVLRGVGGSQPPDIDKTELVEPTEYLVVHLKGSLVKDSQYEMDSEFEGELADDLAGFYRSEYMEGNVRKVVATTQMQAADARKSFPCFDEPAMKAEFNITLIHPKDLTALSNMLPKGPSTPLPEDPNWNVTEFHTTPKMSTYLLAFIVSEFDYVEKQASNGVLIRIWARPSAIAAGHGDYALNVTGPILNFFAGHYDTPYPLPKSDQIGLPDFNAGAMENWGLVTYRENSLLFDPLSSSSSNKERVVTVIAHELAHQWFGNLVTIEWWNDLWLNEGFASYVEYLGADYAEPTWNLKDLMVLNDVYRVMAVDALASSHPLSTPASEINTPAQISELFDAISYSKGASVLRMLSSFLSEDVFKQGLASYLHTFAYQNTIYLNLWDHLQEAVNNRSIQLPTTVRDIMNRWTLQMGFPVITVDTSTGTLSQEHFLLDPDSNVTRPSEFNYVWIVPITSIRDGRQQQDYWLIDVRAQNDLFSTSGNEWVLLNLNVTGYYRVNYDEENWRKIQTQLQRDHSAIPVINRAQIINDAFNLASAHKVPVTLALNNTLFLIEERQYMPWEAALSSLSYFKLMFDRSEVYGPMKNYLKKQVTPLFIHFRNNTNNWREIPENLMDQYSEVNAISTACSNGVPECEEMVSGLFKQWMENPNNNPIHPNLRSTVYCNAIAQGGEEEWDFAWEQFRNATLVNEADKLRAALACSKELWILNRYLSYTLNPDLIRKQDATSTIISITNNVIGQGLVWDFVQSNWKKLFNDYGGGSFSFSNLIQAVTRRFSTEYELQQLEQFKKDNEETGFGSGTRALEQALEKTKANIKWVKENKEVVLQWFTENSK

Aminopeptidase N [4] = biological target: T1, Aminopeptidase N; assay: Inhibition of Aminopeptidase N (unknown origin) using Ala-AMC as substrate incubated for 30 mins by SpectraMax microplate reader analysis
Mus musculus [5] = assay: Antinociceptive activity in CF-1 mouse assessed as increase in maximal possible effect at 50 to 100 ug,icv administration measured after 15 mins by tail-flick test; assay type: functional, organism-based; conditions: dose 50-100 µg
Mus musculus [6] = assay: Antinociceptive activity in CF-1 mouse assessed as increase in maximal possible effect at 50 to 100 ug,icv administration in presence of naloxone measured after 15 mins by hot plate assay; assay type: functional, organism-based; conditions: dose 50-100 µg
Mus musculus [7] = assay: Antinociceptive activity in CF-1 mouse assessed as increase in maximal possible effect at 50 to 100 ug,icv administration in presence of naloxone measured after 15 mins by tail-flick test; assay type: functional, organism-based; conditions: dose 50-100 µg
Mus musculus [8] = assay: Antinociceptive activity in CF-1 mouse assessed as analgesic effect at 50 to 100 ug,icv administration measured after 15 mins by hot plate assay; assay type: functional, organism-based; conditions: dose 50-100 µg
Mus musculus [9] = assay: Antinociceptive activity in CF-1 mouse assessed as analgesic effect at ip administration measured after 15 mins by hot plate assay; assay type: functional, organism-based
Mus musculus [10] = assay: Antinociceptive activity in CF-1 mouse assessed as analgesic effect at 50 to 100 ug,icv administration measured after 60 mins by tail-flick test; assay type: functional, organism-based; conditions: dose 50-100 µg
Mus musculus [11] = assay: Antinociceptive activity in CF-1 mouse assessed as increase in Leu-enkephalin level in brain at 50 to 100 ug,icv administration in presence of KCL measured after 65 mins by LC-MS/MS analysis; assay type: functional, organism-based; conditions: dose 50-100 µg
Mus musculus [12] = assay: Antinociceptive activity in CF-1 mouse assessed as increase in maximal possible effect at 50 to 100 ug,icv administration measured after 60 mins by tail-flick test; assay type: functional, organism-based; conditions: dose 50-100 µg
Mus musculus [13] = assay: Antinociceptive activity in CF-1 mouse assessed as increase in maximal possible effect at 50 to 100 ug,icv administration in presence of naloxone measured after 65 mins by hot plate assay; assay type: functional, organism-based; conditions: dose 50-100 µg
Mus musculus [14] = assay: Antinociceptive activity in CF-1 mouse assessed as increase in maximal possible effect at 50 to 100 ug,icv administration in presence of Met-enkephalin measured after 15 mins by hot plate assay; assay type: functional, organism-based; conditions: dose 50-100 µg
[15] = Stability in mouse plasma assessed as compound remaining at 1 uM measured after 24 hr by LC-MS/MS analysis relative to control; assay type: ADME, cell-free
Mus musculus [16] = assay: Antinociceptive activity in CF-1 mouse assessed as increase in maximal possible effect at 50 to 100 ug,icv administration in presence of Met-enkephalin measured after 15 mins by tail-flick test; assay type: functional, organism-based; conditions: dose 50-100 µg
Mus musculus [17] = assay: Antinociceptive activity in CF-1 mouse assessed as increase in maximal possible effect at 50 to 100 ug,icv administration in presence of naloxone measured after 65 mins by tail-flick test; assay type: functional, organism-based; conditions: dose 50-100 µg
Mus musculus [18] = assay: Antinociceptive activity in CF-1 mouse assessed as increase in MERF level in brain at 50 to 100 ug,icv administration in presence of KCL measured after 65 mins by LC-MS/MS analysis; assay type: functional, organism-based; conditions: dose 50-100 µg
Mus musculus [19] = assay: Antinociceptive activity in CF-1 mouse assessed as increase in maximal possible effect at 50 to 100 ug,icv administration in presence of Met-enkephalin measured after 65 mins by hot plate assay; assay type: functional, organism-based; conditions: dose 50-100 µg
Mus musculus [20] = assay: Antinociceptive activity in CF-1 mouse assessed as analgesic effect at 50 to 100 ug,icv administration measured after 45 mins by tail-flick test; assay type: functional, organism-based; conditions: dose 50-100 µg
Mus musculus [21] = assay: Antinociceptive activity in CF-1 mouse assessed as analgesic effect at ip administration measured after 60 mins by tail-flick test; assay type: functional, organism-based
Mus musculus [22] = assay: Antinociceptive activity in CF-1 mouse assessed as increase in maximal possible effect at 50 to 100 ug,icv administration in presence of Met-enkephalin measured after 65 mins by tail-flick test; assay type: functional, organism-based; conditions: dose 50-100 µg
Mus musculus [23] = assay: Antinociceptive activity in CF-1 mouse assessed as increase in Met-enkephalin level in brain at 50 to 100 ug,icv administration in presence of KCL measured after 65 mins by LC-MS/MS analysis; assay type: functional, organism-based; conditions: dose 50-100 µg

CN(C)c1ncnc2c1ncn2[C@@H]1O[C@H](CO)[C@@H](NC(=O)[C@@H](N)CSC(c2ccccc2)c2ccccc2)[C@H]1O
CC50 [1]: > 100 µM
IC50 [2]: 0.007 µM
inhibition at 25 µM (Vero): 0%

CC(C)C[C@@H](C(=O)N[C@H](C(=O)OC1CCCC1)c1ccccc1)[C@H](O)C(=O)NO [TOSEDOSTAT]
CC50 [1]: 12.7 µM
inhibition at 25 µM (Vero): 34.5%

CN(C)c1ncnc2c1ncn2[C@@H]1O[C@H](CO)[C@@H](NC(=O)[C@H](N)CSC(c2ccccc2)c2ccccc2)[C@H]1O
CC50 [1]: 46 µM
inhibition at 25 µM (Vero): 0%

CN(C)c1ncnc2c1ncn2[C@@H]1O[C@H](CCl)[C@@H](NC(=O)[C@@H](N)CSC23CC4CC(CC(C4)C2)C3)[C@H]1O
IC50 [2]: 0.005 µM
inhibition (Aminopeptidase N [3]): 99.1%
inhibition at 25 µM (Vero): 10.4%
IC50 (Aminopeptidase N [4]): 0.084 µM

CN(C)c1ncnc2c1ncn2[C@@H]1O[C@H](CCl)[C@@H](NC(=O)[C@H](CSC23CC4CC(CC(C4)C2)C3)NC(=O)OC(C)(C)C)[C@H]1O
inhibition (Aminopeptidase N [3]): 0%
inhibition at 25 µM (Vero): 22.1%

O=C(O)CNC(=O)C(CS)Cc1ccccc1 (centres undefined) [THIORPHAN]
CC50 [1]: > 100 µM
IC50 [2]: 57.3 µM
inhibition (Aminopeptidase N [3]): 0%
inhibition at 25 µM (Vero): 70.3%
IC50 (Aminopeptidase N [4]): > 100 µM

COc1ccc(C[C@H](N)C(=O)N[C@H]2[C@@H](O)[C@H](n3cnc4c(N(C)C)ncnc43)O[C@@H]2CCl)cc1
inhibition at 25 µM (Vero): 26.1%
IC50 (Aminopeptidase N [4]): > 100 µM

CN(C)c1ncnc2c1ncn2[C@@H]1O[C@H](CO)[C@@H](NC(=O)[C@@H](N)CSC23CC4CC(CC(C4)C2)C3)[C@H]1O
CC50 [1]: 17.6 µM
inhibition (Aminopeptidase N [3]): 99.1%
inhibition at 25 µM (Vero): 24%

CN(C)c1ncnc2c1ncn2[C@@H]1O[C@H](CCl)[C@@H](NC(=O)[C@@H](CSC(c2ccccc2)c2ccccc2)NC(=O)OC(C)(C)C)[C@H]1O
CC50 [1]: 67.4 µM
inhibition (Aminopeptidase N [3]): 0%
inhibition at 25 µM (Vero): 0%

COc1ccc(C[C@H](N)C(=O)N[C@H]2[C@@H](O)[C@H](n3cnc4c(N(C)C)ncnc43)O[C@@H]2CO)cc1 [PUROMYCIN]
CC50 [1]: 2.76 µM
inhibition at 25 µM (Vero): 99%

CN(C)c1ncnc2c1ncn2[C@@H]1O[C@H](CCl)[C@@H](NC(=O)[C@@H](N)CSC(c2ccccc2)c2ccccc2)[C@H]1O
Activity (Mus musculus [5]): Active
Activity (Mus musculus [6]): inactive
Activity (Mus musculus [7]): inactive
CC50 [1]: > 100 µM
IC50 [2]: 0.007 µM
Activity (Mus musculus [8]): Active
Activity (Mus musculus [9]): inactive
inhibition (Aminopeptidase N [3]): 55.8%
Activity (Mus musculus [10]): Active
Activity (Mus musculus [11]): Active
Activity (Mus musculus [12]): Active
Activity (Mus musculus [13]): inactive
Activity (Mus musculus [14]): Active
Stability [15]: 116.7%
Activity (Mus musculus [16]): Active
Activity (Mus musculus [17]): inactive
inhibition at 25 µM (Vero): 0%
Activity (Mus musculus [18]): Active
Activity (Mus musculus [19]): Active
Activity (Mus musculus [20]): Active
IC50 (Aminopeptidase N [4]): 2.6 µM
Activity (Mus musculus [21]): inactive
Activity (Mus musculus [22]): Active
Activity (Mus musculus [23]): inactive

CC(C)C[C@H](NC(=O)[C@@H](O)[C@H](N)Cc1ccccc1)C(=O)O [UBENIMEX]
CC50 [1]: 25 µM
inhibition at 25 µM (Vero): 28%

CN(C)c1ncnc2c1ncn2[C@@H]1O[C@H](CCl)[C@@H](NC(=O)[C@H](CSC(c2ccccc2)c2ccccc2)NC(=O)OC(C)(C)C)[C@H]1O
CC50 [1]: > 100 µM
inhibition (Aminopeptidase N [3]): 4.6%
inhibition at 25 µM (Vero): 3%

CN(C)c1ncnc2c1ncn2[C@@H]1O[C@H](CCl)[C@@H](NC(=O)[C@H](N)CSC(c2ccccc2)c2ccccc2)[C@H]1O
inhibition (Aminopeptidase N [3]): 38.9%
inhibition at 25 µM (Vero): 0%
